pIC50: −log10 of the molar value. Where “and” joins values, the source holds several entries; their conditions need not be identical. Identical values can stand only once.

Here are results for two molecules from publication PMC6952396, “Structural basis for itraconazole-mediated NPC1 inhibition” (Nature Communications, 2020).

The target of this test is T1, NPC1 (Cricetulus griseus, UniProt Q9JLG3).
T1 construct: CHO-7 cells in the medium are deprived of cholesterol to induce the LDL receptors biosynthesis; endogenous in cells; host or cells: CHO-7 cells
T1 sequence (Q9JLG3 23-1277): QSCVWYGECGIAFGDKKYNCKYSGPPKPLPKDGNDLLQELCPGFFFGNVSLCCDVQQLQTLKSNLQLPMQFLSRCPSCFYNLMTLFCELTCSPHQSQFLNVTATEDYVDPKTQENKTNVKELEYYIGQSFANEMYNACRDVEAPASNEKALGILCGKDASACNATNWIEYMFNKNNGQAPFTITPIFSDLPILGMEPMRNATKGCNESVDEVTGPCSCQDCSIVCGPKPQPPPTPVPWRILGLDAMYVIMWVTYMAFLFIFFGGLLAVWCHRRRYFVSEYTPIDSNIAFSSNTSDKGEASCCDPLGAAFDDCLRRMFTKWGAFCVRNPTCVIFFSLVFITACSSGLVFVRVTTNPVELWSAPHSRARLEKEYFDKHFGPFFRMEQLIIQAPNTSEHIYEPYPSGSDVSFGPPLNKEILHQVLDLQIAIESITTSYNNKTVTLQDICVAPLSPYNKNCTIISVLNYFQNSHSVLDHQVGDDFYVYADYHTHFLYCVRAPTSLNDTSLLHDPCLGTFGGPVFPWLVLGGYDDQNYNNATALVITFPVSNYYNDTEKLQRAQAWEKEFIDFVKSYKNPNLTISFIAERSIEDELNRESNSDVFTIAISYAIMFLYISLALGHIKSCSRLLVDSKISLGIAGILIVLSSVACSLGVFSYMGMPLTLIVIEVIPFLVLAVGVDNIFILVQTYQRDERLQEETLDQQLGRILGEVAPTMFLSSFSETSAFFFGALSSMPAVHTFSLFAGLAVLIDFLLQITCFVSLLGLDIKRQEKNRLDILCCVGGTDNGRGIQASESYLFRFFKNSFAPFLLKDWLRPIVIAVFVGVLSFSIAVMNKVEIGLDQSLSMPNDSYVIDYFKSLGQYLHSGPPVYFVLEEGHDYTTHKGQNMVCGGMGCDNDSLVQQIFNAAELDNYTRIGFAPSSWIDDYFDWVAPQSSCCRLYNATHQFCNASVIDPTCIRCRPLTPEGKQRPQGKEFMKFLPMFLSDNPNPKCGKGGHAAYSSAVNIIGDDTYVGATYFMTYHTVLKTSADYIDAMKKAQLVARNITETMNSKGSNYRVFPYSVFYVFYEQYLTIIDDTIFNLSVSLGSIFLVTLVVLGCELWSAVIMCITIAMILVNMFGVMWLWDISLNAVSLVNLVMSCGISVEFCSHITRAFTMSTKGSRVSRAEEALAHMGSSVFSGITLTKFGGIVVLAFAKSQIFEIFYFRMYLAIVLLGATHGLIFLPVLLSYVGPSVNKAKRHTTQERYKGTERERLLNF
Description: Cholesterol re-esterification (ACAT) assay measuring NPC1-mediated export of cholesterol from lysosomes in CHO-7 cells. It is filed as cell-based. To be noted: for cholesteryl [14C] oleate formed, Repeat 1 / cholesteryl [14C] oleate formed, Repeat 2: Fig. 2 source data; for cholesteryl [14C] oleate formed, Repeat 3 / cholesteryl [14C] oleate formed, Repeat 4: Supplementary Fig. 3 source data; for pIC50: IC50 (concentration at which each compound inhibited cholesterol esterification by 50%), 10% FCS, 4 h then 2 h [14C] oleate pulse. An excerpt: Itraconazole has three chiral centers (Supplementary Fig. 2a). The pharmaceutical form contains four cis-stereoisomers in a 1:1:1:1 molar ratio (Supplementary Fig. 2a–d). To determine the activity of the cis-stereoisomers, the individual isomers were isolated and identified based on their optical rotation in chloroform following a previous report (Supplementary Fig. 2e)[26]. Then, they were separately tested in a cholesterol re-esterification assay used to measure NPC1-mediated export of cholesterol from lysosomes. Briefly, CHO-7 cells in the medium are deprived of cholesterol to induce the LDL receptors biosynthesis. The cells are then incubated with fetal calf serum (FCS) that contains LDL. The LDL-derived cholesterol will now be transported by functional NPC1 protein from the lysosome to the endoplasmic reticulum (ER). The acyl-CoA:cholesterol actyltransferase named ACAT can now re-esterify the cholesterol in the ER. Therefore, the cells were pulse-labeled with [^14C] oleate and we can measure the synthesis of cholesteroyl [^14C] oleate to evaluate the activity of NPC1 protein. Using this assay, we tested the ability of various itraconazole to inhibit NPC1 activity.
Fig. 2 ACAT activity of itraconazole and ketoconazole in CHO-7 cells. On day 0, CHO-7 cells were set up in medium A with 5% LPDS at 2.5 × 10^5 cells/well in 6-well dish. On day 2, cells were switched to medium A with 5% LPDS containing 50 µM sodium compactin and 50 µM sodium mevalonate. On day 3 the cells received fresh medium B containing compactin and mevalonate with various concentration compounds in the presence of 10% FCS containing lipoproteins. After incubation for 4 h at 37 °C, each cell monolayer was pulse-labeled for 2 h with 0.1 mM sodium [^14C] oleate (5792 dpm/nmol). The cells were then harvested for measurement of their content of cholesteryl [^14C] oleate and [^14C] triglycerides, as described in Methods. […] Itraconazole mixture, isomer A (Supplementary Fig. 2a), isomer B (Supplementary Fig. 2b) and isomer C (Supplementary Fig. 2c) were added at final concentrations of 0.3 μM. The isomer D (Supplementary Fig. 2d), I-Br and ketoconazole were added at final concentrations of 1 μM. The biological repeats are shown as individual values. Source data are provided as a Source Data file.
On day 0, cells were set up in medium A with 5% LPDS at 2.5 × 10^5 cells/well in six-well dish. On day 2, cells were switched to medium A with 5% LPDS containing 50 µM sodium compactin and 50 µM sodium mevalonate. On day 3 the cells received fresh medium B containing compactin and mevalonate with indicated concentration triazole compounds in the presence of 10% FCS containing lipoproteins. After incubation for 4 h at 37 °C, each cell monolayer was pulse-labeled for 2 h with 0.1 mM sodium [^14C] oleate (5792 dpm/nmol). The cells were then harvested for measurement of their content of cholesteryl [^14C] oleate and [^14C] triglycerides.
The rate of incorporation of [^14C] oleate into cholesteryl [^14C] oleate and [^14C] triglycerides by monolayers of NPC1^−/− cells and CHO-7 cells was measured as described previously. In brief, cells were switched to medium containing LPDS supplemented with compactin and mevolonate at 16 h before the experiments. On the day of the experiment, cells were incubated for 4 h with fresh medium containing FCS as a source of cholesterol-containing lipoproteins. Cells were then pulse –labeled for 2 h with 0.1 mM sodium [^14C] oleate. Cells were then washed, and the lipids were extracted in hexane:isopropanol (3:2, vol:vol), separated on a silica gel G thin-layer chromatogram (developed in heptane:ethylether:acetic acid, 90:30:1), and quantified by scintillation counting with the use of an internal standard for recovery.

`CCC(C)n1ncn(-c2ccc(N3CCN(c4ccc(OCC5COC(Cn6cncn6)(c6ccc(Cl)cc6Cl)O5)cc4)CC3)c(Br)c2)c1=O` (stereo not shown) [I-Br]: the pIC50 was 6.70 and ~6.70. For the setting “0.01 uM compound”, the “cholesteryl [14C] oleate formed, Repeat 1” value (from here on “cholesteryl … Repeat 1”) is listed as 4.59 nanomoles formed per hour per milligram cell protein; the “cholesteryl [14C] oleate formed, Repeat 2” value (“cholesteryl … Repeat 2” for short) is listed as 4.968 nanomoles formed per hour per milligram cell protein; the “cholesteryl [14C] oleate formed, Repeat 3” value (“cholesteryl … Repeat 3” for short) is reported as 4.668 nanomoles formed per hour per milligram cell protein; the “cholesteryl [14C] oleate formed, Repeat 4” value (“cholesteryl … Repeat 4” for short) was 4.998 nanomoles formed per hour per milligram cell protein. Also, where the note is “0.03 uM compound”, the “cholesteryl … Repeat 1” value is reported as 5.377 nanomoles formed per hour per milligram cell protein; the “cholesteryl … Repeat 2” value was 4.886 nanomoles formed per hour per milligram cell protein; the “cholesteryl … Repeat 3” value was 4.708 nanomoles formed per hour per milligram cell protein; the “cholesteryl … Repeat 4” value is 4.077 nanomoles formed per hour per milligram cell protein. Where the note is “0.06 uM compound”, the “cholesteryl … Repeat 1” value is given as 4.324 nanomoles formed per hour per milligram cell protein; the “cholesteryl … Repeat 2” value was 4.164 nanomoles formed per hour per milligram cell protein; the “cholesteryl … Repeat 3” value was 4.605 nanomoles formed per hour per milligram cell protein; the “cholesteryl … Repeat 4” value is recorded as 3.966 nanomoles formed per hour per milligram cell protein. Where the note is “0.1 uM compound”, the “cholesteryl … Repeat 1” value is listed as 3.9836 nanomoles formed per hour per milligram cell protein; the “cholesteryl … Repeat 2” value was 4.202 nanomoles formed per hour per milligram cell protein; the “cholesteryl … Repeat 3” value is reported as 4.772 nanomoles formed per hour per milligram cell protein; the “cholesteryl … Repeat 4” value is listed as 3.292 nanomoles formed per hour per milligram cell protein. Further, where the note is “0.3 uM compound”, the “cholesteryl … Repeat 1” value was 1.539 nanomoles formed per hour per milligram cell protein; the “cholesteryl … Repeat 2” value is on record as 1.1254 nanomoles formed per hour per milligram cell protein; the “cholesteryl … Repeat 3” value is recorded as 1.245 nanomoles formed per hour per milligram cell protein; the “cholesteryl … Repeat 4” value is on record as 1.037 nanomoles formed per hour per milligram cell protein. For the setting “1 uM compound”, the “cholesteryl … Repeat 1” value was 0.2467 nanomoles formed per hour per milligram cell protein; the “cholesteryl … Repeat 2” value is 0.5544 nanomoles formed per hour per milligram cell protein; the “cholesteryl … Repeat 3” value is on record as 0.5005 nanomoles formed per hour per milligram cell protein; the “cholesteryl … Repeat 4” value was 0.5131 nanomoles formed per hour per milligram cell protein.
Take `CCC(C)n1ncn(-c2ccc(N3CCN(c4ccc(OCC5COC(Cn6cncn6)(c6ccc(Cl)cc6Cl)O5)cc4)CC3)cc2)c1=O` (stereo not shown) [Itraconazole mixture, itraconazole]: the pIC50 is ~7.30 and 7.30. Where the note is “0.01 uM compound”, the “cholesteryl … Repeat 1” value is given as 4.018 nanomoles formed per hour per milligram cell protein; the “cholesteryl … Repeat 2” value is 4.2448 nanomoles formed per hour per milligram cell protein; the “cholesteryl … Repeat 3” value is given as 4.59 nanomoles formed per hour per milligram cell protein; the “cholesteryl … Repeat 4” value was 4.561 nanomoles formed per hour per milligram cell protein. For the same molecule, under “0.03 uM compound”, the “cholesteryl … Repeat 1” value is listed as 5.241 nanomoles formed per hour per milligram cell protein; the “cholesteryl … Repeat 2” value is given as 3.3234 nanomoles formed per hour per milligram cell protein; the “cholesteryl … Repeat 3” value is 3.807 nanomoles formed per hour per milligram cell protein; the “cholesteryl … Repeat 4” value is listed as 5.72 nanomoles formed per hour per milligram cell protein. Besides, where the note is “0.06 uM compound”, the “cholesteryl … Repeat 1” value was 1.349 nanomoles formed per hour per milligram cell protein; the “cholesteryl … Repeat 2” value is listed as 2.23 nanomoles formed per hour per milligram cell protein; the “cholesteryl … Repeat 3” value was 3.728 nanomoles formed per hour per milligram cell protein; the “cholesteryl … Repeat 4” value is on record as 1.926 nanomoles formed per hour per milligram cell protein. Moreover, where the note is “0.1 uM compound”, the “cholesteryl … Repeat 1” value was 1.053 nanomoles formed per hour per milligram cell protein; the “cholesteryl … Repeat 2” value is 0.9435 nanomoles formed per hour per milligram cell protein; the “cholesteryl … Repeat 3” value is on record as 1.321 nanomoles formed per hour per milligram cell protein; the “cholesteryl … Repeat 4” value is on record as 1.133 nanomoles formed per hour per milligram cell protein. Further, under “0.3 uM compound”, the “cholesteryl … Repeat 1” value is 0.3641 nanomoles formed per hour per milligram cell protein; the “cholesteryl … Repeat 2” value was 0.3378 nanomoles formed per hour per milligram cell protein; the “cholesteryl … Repeat 3” value is on record as 0.05082 nanomoles formed per hour per milligram cell protein; the “cholesteryl … Repeat 4” value was 0.1455 nanomoles formed per hour per milligram cell protein.

One may read the pIC50 as −log10 of the IC50, conventionally taken in molar units. The low end stands for a high IC50, the high end for a low IC50.
